Reference: ChEMBL document CHEMBL5543162, “Discovery of a Novel Orally Bioavailable FLT3-PROTAC Degrader for Efficient Treatment of Acute Myeloid Leukemia and Overcoming Resistance of FLT3 Inhibitors” (J Med Chem, 2024)

Legend:
Format in all cases: functional, cell-based
MV4-11 = experiment: Antiproliferative activity against human MV4-11 cells expressing FLT3-ITD mutant incubated for 48 hrs by CCK8 assay; details: MV4-11, 48 h
MOLM-13 [1] = experiment: Antiproliferative activity against human MOLM-13 cells incubated for 48 hrs by CCK8 assay; details: MOLM-13, 48 h
MOLM-13 [2] = experiment: Antiproliferative activity against Sunitinib-resistant human MOLM-13 cells incubated for 48 hrs by CCK8 assay; details: MOLM-13, 48 h
MOLM-13 [3] = experiment: Antiproliferative activity against Quizartinib-resistant human MOLM-13 cells incubated for 48 hrs by CCK8 assay; details: MOLM-13, 48 h

Structure (SMILES) | IC50 (MV4-11) [nM] | IC50 (MOLM-13 [1]) [nM] | IC50 (MOLM-13 [2]) [nM] | IC50 (MOLM-13 [3]) [nM]
Cc1c(NC(=O)CN2CCN(C(=O)CCCCCCC(=O)NCCNc3cccc4c3C(=O)N(C3CCC(=O)NC3=O)C4=O)CC2)c[nH]c1/C=C1\C(=O)Nc2ccc(F)cc21 (centres undefined) | 288 | 533 |  | 
Cc1c(NC(=O)CN2CCN(C(=O)CCOCCNC(=O)COc3cccc4c3C(=O)N(C3CCC(=O)NC3=O)C4=O)CC2)c[nH]c1/C=C1\C(=O)Nc2ccc(F)cc21 (centres undefined) | 812 | > 1000 |  | 
Cc1c(NC(=O)CN2CCN(C(=O)CCCCCCCCCCNc3cccc4c3C(=O)N(C3CCC(=O)NC3=O)C4=O)CC2)c[nH]c1/C=C1\C(=O)Nc2ccc(F)cc21 (centres undefined) | 193 | 273 |  | 
Cc1c(NC(=O)CN2CCN(C(=O)CCCCC(=O)NCCNc3cccc4c3C(=O)N(C3CCC(=O)NC3=O)C4=O)CC2)c[nH]c1/C=C1\C(=O)Nc2ccc(F)cc21 (centres undefined) | 201 | 657 |  | 
Cc1c(NC(=O)CN2CCN(C(=O)CCOCCOCCNC(=O)COc3cccc4c3C(=O)N(C3CCC(=O)NC3=O)C4=O)CC2)c[nH]c1/C=C1\C(=O)Nc2ccc(F)cc21 (centres undefined) | 388 | > 1000 |  | 
Cc1ncsc1-c1ccc(CNC(=O)[C@H]2C[C@H](O)CN2C(=O)[C@@H](NC(=O)CCCCCCC(=O)N2CCN(CC(=O)Nc3c[nH]c(/C=C4\C(=O)Nc5ccc(F)cc54)c3C)CC2)C(C)(C)C)cc1 | 262 | 399 |  | 
Cc1ncsc1-c1ccc(CNC(=O)[C@@H]2C[C@@H](O)CN2C(=O)[C@@H](NC(=O)CCCCC(=O)N2CCN(CC(=O)Nc3c[nH]c(/C=C4\C(=O)Nc5ccc(F)cc54)c3C)CC2)C(C)(C)C)cc1 | 360 | > 1000 |  | 
Cc1c(NC(=O)CN2CCN(CC3CCN(c4cccc5c4C(=O)N(C4CCC(=O)NC4=O)C5=O)CC3)CC2)c[nH]c1/C=C1\C(=O)Nc2ccc(F)cc21 (centres undefined) | 194 | 336 |  | 
Cc1ncsc1-c1ccc(CNC(=O)[C@H]2C[C@H](O)CN2C(=O)[C@@H](NC(=O)CCCCCCCCC(=O)N2CCN(CC(=O)Nc3c[nH]c(/C=C4\C(=O)Nc5ccc(F)cc54)c3C)CC2)C(C)(C)C)cc1 | 410 | > 1000 |  | 

Continued, values first:

IC50 (MV4-11) [nM] | IC50 (MOLM-13 [1]) [nM] | IC50 (MOLM-13 [2]) [nM] | IC50 (MOLM-13 [3]) [nM] | Structure (SMILES)
91.4 | 220 |  |  | Cc1c(NC(=O)CN2CCN(C(=O)CCCCCCCNc3cccc4c3C(=O)N(C3CCC(=O)NC3=O)C4=O)CC2)c[nH]c1/C=C1\C(=O)Nc2ccc(F)cc21 (centres undefined)
126 | 333 |  |  | Cc1c(NC(=O)CN2CCN(CC3CN(c4ccc5c(c4)C(=O)N(C4CCC(=O)NC4=O)C5=O)C3)CC2)c[nH]c1/C=C1\C(=O)Nc2ccc(F)cc21 (centres undefined)
191 | > 1000 |  |  | Cc1ncsc1-c1ccc(CNC(=O)[C@@H]2C[C@@H](O)CN2C(=O)[C@H](NC(=O)CCCCCCCC(=O)N2CCN(CC(=O)Nc3c[nH]c(/C=C4\C(=O)Nc5ccc(F)cc54)c3C)CC2)C(C)(C)C)cc1
130 | 276 |  |  | Cc1c(NC(=O)CN2CCN(CCCCCCCCCOc3cccc4c3C(=O)N(C3CCC(=O)NC3=O)C4=O)CC2)c[nH]c1/C=C1\C(=O)Nc2ccc(F)cc21 (centres undefined)
170 | 358 |  |  | Cc1c(NC(=O)CN2CCN(C(=O)CCCCCCCC(=O)NCCNc3cccc4c3C(=O)N(C3CCC(=O)NC3=O)C4=O)CC2)c[nH]c1/C=C1\C(=O)Nc2ccc(F)cc21 (centres undefined)
40.2 | 67.5 | 10900 | 2320 | CCc1nc(C(N)=O)c(Nc2ccc(N3CCC(N4CCN(C)CC4)CC3)c(OC)c2)nc1NC1CCOCC1 [GILTERITINIB]
106 | 335 |  |  | Cc1c(NC(=O)CN2CCN(C3CCN(c4ccc5c(c4)C(=O)N(C4CCC(=O)NC4=O)C5=O)CC3)CC2)c[nH]c1/C=C1\C(=O)Nc2ccc(F)cc21 (centres undefined)
